Reference: patent US20210395313A1, “PEPTIDE PAC1 ANTAGONISTS” (AMGEN INC., priority 2017, published 2021)
Bridges are numbered along the chain shown (N, C = ends). Where no end group is shown, it is not given here.

How the values were obtained:
rat PAC1 receptor [1] = molecular target: T1, rat PAC1 receptor (Rattus norvegicus, UniProt P32215); assay: LANCE Ultra cAMP accumulation antagonist assay in RG-2 cells; format: cell-based;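 note: RG-2 rat glioma cells endogenously expressing PAC1, test peptide preincubated 30 min, then PAC1 agonist added at its EC80 for 15 min, cAMP accumulation read by LANCE Ultra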
T1 construct: SHSY-5Y (human neuroblastoma cell line) and RG-2 (rat glioma cell line) cells endogenously express human and rat PAC1 receptors, respectively; endogenous in cells; host or cells: RG-2 rat glioma cells
T1 sequence (P32215 20-523): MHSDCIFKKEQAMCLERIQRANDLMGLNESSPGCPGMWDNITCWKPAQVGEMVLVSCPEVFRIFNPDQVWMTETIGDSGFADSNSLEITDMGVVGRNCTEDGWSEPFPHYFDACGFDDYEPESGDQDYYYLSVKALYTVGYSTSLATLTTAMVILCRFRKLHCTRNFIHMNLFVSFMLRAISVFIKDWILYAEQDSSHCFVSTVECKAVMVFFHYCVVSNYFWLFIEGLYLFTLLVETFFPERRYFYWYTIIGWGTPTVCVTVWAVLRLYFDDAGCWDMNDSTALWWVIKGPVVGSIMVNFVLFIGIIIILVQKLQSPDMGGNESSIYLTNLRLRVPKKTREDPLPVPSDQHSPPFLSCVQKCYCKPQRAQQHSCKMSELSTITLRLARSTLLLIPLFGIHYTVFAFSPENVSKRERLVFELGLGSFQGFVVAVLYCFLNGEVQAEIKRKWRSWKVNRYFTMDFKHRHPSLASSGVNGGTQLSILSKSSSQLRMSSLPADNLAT

in vitro = settings: rat, plasma
Description: (§1) To model degradation in blood, PAC1 peptides of the present application were incubated in vitro with rat plasma. The stability analysis was conducted in a manner similar to as previously described by Souverain et al. (J. of Pharmaceutical and Biomedical Analysis, 35 (2004) 913-920).
(§2) Briefly, PAC1 peptides were spiked into rat plasma and incubated at 37° C. for up to 6 hours. Employing the reverse stability technique for various time points, plasma samples were quenched by the addition of perchloric acid in water containing internal standard (IS) and vortexed undergoing protein precipitation extraction (PPE). Following the vortex mix, samples were centrifuged and the supernatant containing PAC1 peptide and IS was subsequently analyzed using a liquid chromatography mass-spectrometry (LC-MS) system (Sciex® API 5500). The peak area ratio of intact PAC1 peptide to IS was determined for each time point. Peptide stability was reported as a percentage of the peak area ratio at each time point relative to the peak are ratio of a baseline sample (pre-incubation).

[2] = rat plasma, 37° C., 0 h (baseline)
Description: as §1, §2

PAC1 = molecular target: T2, PAC1 (Rattus norvegicus, UniProt P32215); assay: Rat maxadilan-induced increase in blood flow (MIIBF) PD model, laser Doppler imaging; format: in vivo; settings: single bolus s.c., lowest dose of 0.3 mg/kg, 15 min prior to maxadilan, 45 min post peptide treatment
T2 construct: Naive male Sprague Dawley® rats aged 8-12 weeks at the time of the study were purchased from Charles River Laboratories; tissue Charles River Laboratories; host or cells: live male Sprague Dawley rats; dermal blood flow on abdominal skin
T2 sequence (P32215 20-523): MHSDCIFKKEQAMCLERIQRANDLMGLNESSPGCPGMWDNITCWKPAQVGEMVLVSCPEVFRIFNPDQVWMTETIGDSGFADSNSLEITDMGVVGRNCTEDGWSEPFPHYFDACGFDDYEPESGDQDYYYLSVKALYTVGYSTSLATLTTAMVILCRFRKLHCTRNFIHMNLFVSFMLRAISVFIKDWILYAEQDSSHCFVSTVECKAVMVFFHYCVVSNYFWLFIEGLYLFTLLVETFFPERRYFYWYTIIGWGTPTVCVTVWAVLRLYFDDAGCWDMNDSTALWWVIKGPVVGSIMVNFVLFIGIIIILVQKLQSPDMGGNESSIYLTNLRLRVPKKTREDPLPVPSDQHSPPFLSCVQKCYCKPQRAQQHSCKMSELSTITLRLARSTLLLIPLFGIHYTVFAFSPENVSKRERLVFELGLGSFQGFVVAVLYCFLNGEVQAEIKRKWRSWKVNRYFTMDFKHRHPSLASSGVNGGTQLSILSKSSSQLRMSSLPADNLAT
Description: PAC1 peptide antagonists were also evaluated in an in vivo pharmacodynamic model—a model of maxadilan-induced increase in blood flow.
Naive male Sprague Dawley® rats aged 8-12 weeks at the time of the study were purchased from Charles River Laboratories. Animals were group-housed in non-sterile, ventilated micro-isolator housing in Amgen Assessment and Accreditation of Laboratory Animal Committee (AAALAC)-accredited facility. Animals had ad libitum access to pelleted feed (Harlan Teklad 2020X, Indianapolis, IN) and water (on-site generated reverse osmosis) via automatic watering system.
All PAC1 peptides were tested in a rat maxadilan-induced increase in blood flow (MIIBF) pharmacodynamic (PD) model with a laser Doppler imaging. A dosing solution of maxadilan (Bachem, H6734.0500) was prepared fresh daily by diluted maxadilan stock solution (0.5 mg/mL) in 1× PBS to the final concentration of 0.5 μg/mL. All tested peptides were prepared in 1× PBS at different concentrations depend on the dose required for the experiment and given in a single bolus i.v. or s.c. injection. A laser Doppler imager (LDI-2, Moor Instruments, Ltd, Wilmington, Del.) was used to measure dermal blood flow (DBF) on the shaved skin of the rat abdomen with a low-power laser beam generated by a 633 nm helium-neon bulb. The measurement resolution was 0.2 to 2 mm, with scanning distances between the instrument aperture and the tissue surface of 30 cm. In this report, DBF was measured and expressed as % change from baseline [100×(individual post-CAP flux-individual baseline flux)/individual baseline flux] and further calculated to % Inhibition to quantify the magnitude of drug effect [Mean of vehicle % change from BL−individual drug treated rat % change from BL)/Mean of vehicle % change from BL].
On the test day, following anesthetization with propofol, the rat's abdominal area was shaved and each animal was placed in a supine position on a temperature-controlled circulating warm-water pad to maintain a stable body temperature during the study. After a 10 to 15 minute stabilization period, a rubber O-ring (0.925 cm inner diameter, O-Rings West, Seattle, Wash.) was placed on the rat abdomen without directly positioning it over a visible blood vessel while the rat placed in a supine position on a temperature-controlled circulating warm-water pad to maintain a stable body temperature during the study. After placement of an O-ring on the selected area, a baseline (BL) DBF measurement was taken. After the BL scan, PAC1 peptides were administrated either 5 min for i.v., or 15 min for s.c. then followed by 20 μL (in 0.5 μg/mL) intradermal injection of maxadilan at the center of the O-ring. The post-maxadilan DBF was measured at 30 min and the post peptides time was 35 min for i.v. and 45 min for s.c. respectively. The O-ring serves as an area of interest in which the DBF will be analyzed within the O-ring.
All DBF results were expressed as the mean±SEM. A one-way ANOVA followed by Dunnett's Multiple Comparison Test (MCT) was used to assess the statistical significance of PAC1 peptides effects relative to the vehicle within the study. A p<0.05 was used to determine significance between any two groups.

human PAC1 receptor = molecular target: T3, human PAC1 receptor (Homo sapiens, UniProt P41586); assay: LANCE Ultra cAMP accumulation antagonist assay in SHSY-5Y cells; format: cell-based;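 note: inhibition of cAMP accumulation evoked by PAC1 agonist at its EC80 in SHSY-5Y cells endogenously expressing receptor, 30 min preincubation then 15 min agonist, TR-FRET readout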
T3 construct: SHSY-5Y (human neuroblastoma cell line) and RG-2 (rat glioma cell line) cells endogenously express human and rat PAC1 receptors, respectively; endogenous in cells; host or cells: SHSY-5Y human neuroblastoma cells
T3 sequence (P41586 21-468): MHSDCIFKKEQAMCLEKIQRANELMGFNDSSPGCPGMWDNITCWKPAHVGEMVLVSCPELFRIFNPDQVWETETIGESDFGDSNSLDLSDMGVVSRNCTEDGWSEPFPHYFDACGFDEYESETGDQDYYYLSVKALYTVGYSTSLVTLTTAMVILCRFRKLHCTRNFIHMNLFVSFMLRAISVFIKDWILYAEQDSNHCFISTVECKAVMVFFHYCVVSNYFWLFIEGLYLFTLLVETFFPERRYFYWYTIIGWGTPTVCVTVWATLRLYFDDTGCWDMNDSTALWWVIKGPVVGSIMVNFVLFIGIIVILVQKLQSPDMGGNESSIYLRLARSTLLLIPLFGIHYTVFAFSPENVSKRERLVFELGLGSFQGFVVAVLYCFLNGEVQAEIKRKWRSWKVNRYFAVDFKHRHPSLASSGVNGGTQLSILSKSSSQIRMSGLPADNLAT

rat PAC1 receptor [3] = molecular target: T4, rat PAC1 receptor (rat, UniProt P32215 20-523); assay: cell-based or functional assay
T4 sequence: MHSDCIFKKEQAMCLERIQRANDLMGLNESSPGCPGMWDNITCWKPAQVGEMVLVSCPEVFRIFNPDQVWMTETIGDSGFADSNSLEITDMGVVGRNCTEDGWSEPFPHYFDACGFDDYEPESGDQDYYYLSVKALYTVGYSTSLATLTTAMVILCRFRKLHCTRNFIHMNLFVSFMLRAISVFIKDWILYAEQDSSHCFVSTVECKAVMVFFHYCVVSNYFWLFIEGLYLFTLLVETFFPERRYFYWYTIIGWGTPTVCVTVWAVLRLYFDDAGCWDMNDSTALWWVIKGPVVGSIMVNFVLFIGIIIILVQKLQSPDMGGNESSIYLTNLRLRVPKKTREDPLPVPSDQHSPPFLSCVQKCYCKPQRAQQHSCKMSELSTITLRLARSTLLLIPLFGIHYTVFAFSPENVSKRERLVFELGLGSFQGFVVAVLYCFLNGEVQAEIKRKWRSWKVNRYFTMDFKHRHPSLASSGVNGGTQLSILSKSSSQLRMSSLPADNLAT
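Throughout, for % Intact Peptide Remaining: peptides incubated in vitro in rat plasma at 37 °C up to 6 h, intact peptide quantified by LC-MS versus internal standard, expressed relative to pre-incubation baseline (100%).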

CDATCQFRKAIDDCYYRSWHSNVPGSVFKACMKQKKKEWKAG-NH2 (disulfide 1-5, 14-31) [SEQ ID NO 77]
IC50 (rat PAC1 receptor [1]): 0.01 to 1 nM | remaining at 0.5 h (in vitro): 97.9% | remaining at 1 h (in vitro): 106% | remaining at 2 h (in vitro): 104% | remaining at 4 h (in vitro): 89.6% | remaining at 6 h (in vitro): 110% | % Intact Peptide Remaining [2]: 100% | inhibition of maxadilan-induced increase in DBF (PAC1): statistically significant inhibition | IC50 (human PAC1 receptor): 0.01 to 1 nM

B1: SEQ ID NO 450 (peptide)
peptide: CDATCQFRKAIDDCARQAYHSFKACMKQKKKEWKH
modifications: disulfide 1-5, 14-25
rPAC1 IC50 with maxadilan challenge (cAMP assay, RG-2 cells); 100 nM > B ≥ 1 nM (rat PAC1 receptor [3]): < 100 nM

B2: SEQ ID NO 451 (peptide)
peptide: CDATCQFRKAIDDCARQAYHSFKACMKQKKKEWKAH
modifications: disulfide 1-5, 14-25
rPAC1 IC50 with maxadilan challenge (cAMP assay, RG-2 cells); 100 nM > B ≥ 1 nM (rat PAC1 receptor [3]): < 100 nM

B3: SEQ ID NO 449 (peptide)
peptide: CDATCQFRKAIDDCARQAYHSACMKQKKKEWKAGH
modifications: disulfide 1-5, 14-23
rPAC1 IC50 with maxadilan challenge (cAMP assay, RG-2 cells); 100 nM > B ≥ 1 nM (rat PAC1 receptor [3]): < 100 nM
